Like-named read-outs stand apart in the source and are kept apart here.
Experiments:
human orexin-1 receptor = human orexin-1 receptor (Homo sapiens (Human), UniProt O43613); test: In vitro intracellular calcium measurements (FLIPR), antagonistic activity on orexin-1 receptor; assay type: cell-based; conditions: read-out: IC50 OX1
Summary of the method: (§1)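 CHO cells expressing human orexin-1 or orexin-2 receptor were seeded overnight, preincubated with antagonist for 120 min, then stimulated with agonist in a FLIPR Tetra.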

human orexin-2 receptor = human orexin-2 receptor (Homo sapiens (Human), UniProt O43614); test: In vitro intracellular calcium measurements (FLIPR), antagonistic activity on orexin-2 receptor; assay type: cell-based; conditions: read-out: IC50 OX2
Chain of human orexin-2 receptor (O43614 whole entry): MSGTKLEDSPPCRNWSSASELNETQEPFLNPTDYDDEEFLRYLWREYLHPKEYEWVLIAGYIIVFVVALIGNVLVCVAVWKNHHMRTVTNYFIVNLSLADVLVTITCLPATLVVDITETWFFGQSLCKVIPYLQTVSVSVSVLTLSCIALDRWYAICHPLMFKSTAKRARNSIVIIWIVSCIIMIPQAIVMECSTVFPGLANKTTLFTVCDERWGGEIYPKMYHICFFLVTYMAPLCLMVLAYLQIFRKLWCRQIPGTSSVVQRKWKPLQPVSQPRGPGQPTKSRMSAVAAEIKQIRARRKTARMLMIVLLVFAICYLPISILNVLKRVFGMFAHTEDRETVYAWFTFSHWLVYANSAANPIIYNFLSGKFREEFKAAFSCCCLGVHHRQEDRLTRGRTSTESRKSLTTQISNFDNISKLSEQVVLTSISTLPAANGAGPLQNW
Summary of the method: as §1

CYP3A4 = CYP3A4 (Homo sapiens (Human), UniProt P08684); test: CYP3A4 inhibition assay (human liver microsomes, testosterone 6β-hydroxylation); conditions: read-out: CYP3A4 IC50, 40 μM testosterone
Chain of CYP3A4 (P08684 whole entry): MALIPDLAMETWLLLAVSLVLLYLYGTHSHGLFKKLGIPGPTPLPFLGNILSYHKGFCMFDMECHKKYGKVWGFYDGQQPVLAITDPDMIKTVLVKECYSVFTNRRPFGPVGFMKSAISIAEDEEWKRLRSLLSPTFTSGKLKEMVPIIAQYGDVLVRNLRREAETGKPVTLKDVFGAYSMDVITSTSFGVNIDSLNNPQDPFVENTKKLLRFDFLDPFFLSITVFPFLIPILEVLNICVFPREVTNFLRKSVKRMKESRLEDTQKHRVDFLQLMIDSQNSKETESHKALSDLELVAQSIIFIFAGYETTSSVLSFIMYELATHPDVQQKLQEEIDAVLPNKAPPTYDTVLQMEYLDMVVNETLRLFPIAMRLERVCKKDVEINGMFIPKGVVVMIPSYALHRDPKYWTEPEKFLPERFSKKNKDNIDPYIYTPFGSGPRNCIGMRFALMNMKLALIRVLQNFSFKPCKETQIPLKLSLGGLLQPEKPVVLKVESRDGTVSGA

[1] = CHO cells expressing human orexin-1 receptor, FLIPR, 3 nM orexin-A agonist, 120 min antagonist incubation, geometric mean if determined several times
[2] = CHO cells expressing human orexin-2 receptor, FLIPR, 3 nM orexin-A agonist, 120 min antagonist incubation, geometric mean if determined several times

Chain of human orexin-1 receptor (O43613 whole entry): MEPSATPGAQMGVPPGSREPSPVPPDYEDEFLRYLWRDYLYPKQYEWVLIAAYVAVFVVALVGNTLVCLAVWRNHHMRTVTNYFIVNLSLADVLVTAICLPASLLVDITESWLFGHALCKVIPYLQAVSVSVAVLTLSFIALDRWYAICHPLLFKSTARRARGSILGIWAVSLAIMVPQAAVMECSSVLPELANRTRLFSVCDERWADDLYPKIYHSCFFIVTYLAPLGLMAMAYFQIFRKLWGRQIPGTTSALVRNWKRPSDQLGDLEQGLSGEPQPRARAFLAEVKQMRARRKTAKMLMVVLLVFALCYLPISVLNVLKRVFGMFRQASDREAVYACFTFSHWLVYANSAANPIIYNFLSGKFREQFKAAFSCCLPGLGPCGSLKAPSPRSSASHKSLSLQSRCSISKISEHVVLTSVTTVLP

Row | Structure (SMILES) | IC50 (human orexin-1 receptor; [1]) [µM] | IC50 (human orexin-2 receptor; [2]) [µM] | IC50 (CYP3A4) [µM] | IC50 (human orexin-1 receptor) [µM] | IC50 (human orexin-2 receptor) [µM]
1 | N#Cc1ccc(-n2nccn2)c(C(=O)N2CCOC[C@H]2Cc2cccc(-n3nccn3)c2)c1 [Example 31, 4-[1,2,3]Triazol-2-yl-3-[(R)-3-(3-[1,2,3]triazol-2-yl-benzyl)-morpholine-4-carbonyl]-benzonitrile] | 0.033 | 0.36 | > 50 | – | –
2 | COc1ccc(-n2nccn2)c(C(=O)N2CCOC[C@H]2Cc2cccc(-n3nccn3)c2)c1 [Example 32, (5-Methoxy-2-[1,2,3]triazol-2-yl-phenyl)-[(R)-3-(3-[1,2,3]triazol-2-yl-benzyl)-morpholin-4-yl]-methanone] | – | – | > 50 | 0.007 | 0.489
3 | COc1ccc(-n2nccn2)c(C(=O)N2CCOC[C@H]2Cc2cccc(-n3nccn3)c2)c1F [Example 33, (2-Fluoro-3-methoxy-6-[1,2,3]triazol-2-yl-phenyl)-[(R)-3-(3-[1,2,3]triazol-2-yl-benzyl)-morpholin-4-yl]-methanone] | 0.014 | 1.2 | > 50 | – | –
4 | COc1cc(C(=O)N2CCOC[C@H]2Cc2cccc(-n3nccn3)c2)c(-n2nccn2)cc1OC [Example 34, (4,5-Dimethoxy-2-[1,2,3]triazol-2-yl-phenyl)-[(R)-3-(3-[1,2,3]triazol-2-yl-benzyl)-morpholin-4-yl]-methanone] | 0.005 | 1.23 | > 50 | – | –
5 | O=C(c1ccc(F)cc1-n1nccn1)N1CCOC[C@H]1Cc1cccc(-n2nccn2)c1 [Example 36, (4-Fluoro-2-[1,2,3]triazol-2-yl-phenyl)-[(R)-3-(3-[1,2,3]triazol-2-yl-benzyl)-morpholin-4-yl]-methanone] | – | – | 36 | 0.041 | 0.889
6 | Cc1ccc(-n2nccn2)c(C(=O)N2CCOC[C@H]2Cc2cccc(-c3nccs3)c2)c1 [Example 43, (5-Methyl-2-[1,2,3]triazol-2-yl-phenyl)-[(R)-3-(3-thiazol-2-yl-benzyl)-morpholin-4-yl]-methanone] | 0.0003 | 0.273 | 1.2 | – | –
7 | Cc1ccc(-n2nccn2)c(C(=O)N2CCOC[C@H]2Cc2cccc(-n3nccn3)c2)n1 [Example 52, (6-Methyl-3-[1,2,3]triazol-2-yl-pyridin-2-yl)-[(R)-3-(3-[1,2,3]triazol-2-yl-benzyl)-morpholin-4-yl]-methanone] | 0.043 | 1.63 | > 50 | – | –
8 | Cc1ccc(-n2nccn2)c(C(=O)N2CCOC[C@H]2Cc2cccc(-n3cccn3)c2)n1 [Example 53, (6-Methyl-3-[1,2,3]triazol-2-yl-pyridin-2-yl)-[(R)-3-(3-pyrazol-1-yl-benzyl)-morpholin-4-yl]-methanone] | 0.027 | 3.4 | > 50 | – | –
9 | O=C(c1cccc(F)c1-n1nccn1)N1CCOC[C@H]1Cc1cccc(-n2nccn2)c1 [Example 54, (3-Fluoro-2-[1,2,3]triazol-2-yl-phenyl)-[(R)-3-(3-[1,2,3]triazol-2-yl-benzyl)-morpholin-4-yl]-methanone] | 0.046 | 1.82 | > 50 | – | –
10 | Cc1ccc(-n2nccn2)c(C(=O)N2CCOC[C@H]2Cc2cc(-n3nccn3)ccc2F)c1 [Example 56, [(R)-3-(2-Fluoro-5-[1,2,3]triazol-2-yl-benzyl)-morpholin-4-yl]-(5-methyl-2-[1,2,3]triazol-2-yl-phenyl)-methanone] | 0.004 | 0.837 | 33 | – | –
11 | O=C(c1ccccc1-n1nccn1)N1CCOC[C@H]1Cc1cc(-n2nccn2)ccc1F [Example 57, [(R)-3-(2-Fluoro-5-[1,2,3]triazol-2-yl-benzyl)-morpholin-4-yl]-(2-[1,2,3]triazol-2-yl-phenyl)-methanone] | 0.048 | 2.74 | 20 | – | –
12 | COc1ccc(C[C@@H]2COCCN2C(=O)c2cc(C)ccc2-n2nccn2)cc1-c1ncon1 [Example 58, [(R)-3-(4-Methoxy-3-[1,2,4]oxadiazol-3-yl-benzyl)-morpholin-4-yl]-(5-methyl-2-[1,2,3]triazol-2-yl-phenyl)-methanone] | 0.0007 | 0.042 | 42 | – | –
13 | COc1ccc(C[C@@H]2COCCN2C(=O)c2ccccc2-n2nccn2)cc1-c1ncon1 [Example 59, [(R)-3-(4-Methoxy-3-[1,2,4]oxadiazol-3-yl-benzyl)-morpholin-4-yl]-(2-[1,2,3]triazol-2-yl-phenyl)-methanone] | 0.001 | 0.08 | 32 | – | –
14 | COc1ccc(C[C@@H]2COCCN2C(=O)c2ccc(C)cc2-n2nccn2)cc1-c1ncon1 [Example 60, [(R)-3-(4-Methoxy-3-[1,2,4]oxadiazol-3-yl-benzyl)-morpholin-4-yl]-(4-methyl-2-[1,2,3]triazol-2-yl-phenyl)-methanone] | 0.0007 | 0.034 | 41 | – | –
15 | COc1ccc(C[C@@H]2COCCN2C(=O)c2ccc(F)cc2-n2nccn2)cc1-c1ncon1 [Example 61, (4-Fluoro-2-[1,2,3]triazol-2-yl-phenyl)-[(R)-3-(4-methoxy-3-[1,2,4]oxadiazol-3-yl-benzyl)-morpholin-4-yl]-methanone] | 0.001 | 0.06 | 42 | – | –

The next lines start with results.

Row | IC50 (human orexin-1 receptor; [1]) [µM] | IC50 (human orexin-2 receptor; [2]) [µM] | IC50 (CYP3A4) [µM] | Structure (SMILES) | IC50 (human orexin-1 receptor) [µM] | IC50 (human orexin-2 receptor) [µM]
16 | 0.005 | 0.231 | 18 | Cc1ccc(-n2nccn2)c(C(=O)N2CCOC[C@H]2Cc2cccc(-c3nccc(C)n3)c2)c1 [Example 39, {(R)-3-[3-(4-Methyl-pyrimidin-2-yl)-benzyl]-morpholin-4-yl}-(5-methyl-2-[1,2,3]triazol-2-yl-phenyl)-methanone] | – | –
17 | 0.034 | 2.01 | 5.1 | O=C(c1ccccc1-n1nccn1)N1CCOC[C@H]1Cc1cccc(-c2ncco2)c1 [Example 42, [(R)-3-(3-Oxazol-2-yl-benzyl)-morpholin-4-yl]-(2-[1,2,3]triazol-2-yl-phenyl)-methanone] | – | –
18 | 0.002 | 0.457 | 2 | O=C(c1ccccc1-n1nccn1)N1CCOC[C@H]1Cc1cccc(-c2nccs2)c1 [Example 44, [(R)-3-(3-Thiazol-2-yl-benzyl)-morpholin-4-yl]-(2-[1,2,3]triazol-2-yl-phenyl)-methanone] | – | –
19 | 0.013 | 2.38 | 6 | Cc1ccc(-n2nccn2)c(C(=O)N2CCOC[C@H]2Cc2cccc(-c3cccnn3)c2)c1 [Example 47, (5-Methyl-2-[1,2,3]triazol-2-yl-phenyl)-[(R)-3-(3-pyridazin-3-yl-benzyl)-morpholin-4-yl]-methanone] | – | –
20 | 0.039 | 4.44 | 9.6 | O=C(c1ccccc1-n1nccn1)N1CCOC[C@H]1Cc1cccc(-c2cccnn2)c1 [Example 48, [(R)-3-(3-Pyridazin-3-yl-benzyl)-morpholin-4-yl]-(2-[1,2,3]triazol-2-yl-phenyl)-methanone] | – | –
21 | 0.002 | 0.942 | > 50 | COc1ccc(-n2nccn2)c(C(=O)N2CCOC[C@H]2Cc2cccc(-c3ncccn3)c2)c1 [Example 50, (5-Methoxy-2-[1,2,3]triazol-2-yl-phenyl)-[(R)-3-(3-pyrimidin-2-yl-benzyl)-morpholin-4-yl]-methanone] | – | –
22 | 0.003 | 0.229 | 20 | O=C(c1cc(Cl)ccc1-n1nccn1)N1CCOC[C@H]1Cc1cccc(-c2ncccn2)c1 [Example 51, (5-Chloro-2-[1,2,3]triazol-2-yl-phenyl)-[(R)-3-(3-pyrimidin-2-yl-benzyl)-morpholin-4-yl]-methanone] | – | –

From patent US9150566B2, “2-(1,2,3-triazol-2-yl)benzamide and 3-(1,2,3-triazol-2-YL)picolinamide derivatives as orexin receptor antagonists” (ACTELION PHARMACEUTICALS LTD., priority 2011, dated 2015)
